Test system: 282377-053-R-J1-PDC complex spheroid viability
Test: Anticancer human tumor 282377-053-R-J1-PDC patient-derived colon adenocarcinoma cell line growth inhibition [POLQ]
Conditions: for IC50: curve of first compound; for viability, T/C: stronger effect = lower value
Method in brief: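 Growth inhibition in 3D: complex spheroids (tumor PDC, HUVEC, MSC) treated with POLQ inhibitor combinations; where Cmax unknown, highest tested concentration 10 microM, except SN-38 at 1 microM.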

[1] = second compound 0.0316 µM, first compound 0.0316 µM
[2] = second compound 0.0316 µM, first compound 0.1 µM
[3] = second compound 0.0316 µM, first compound 0.316 µM
[4] = second compound 0.0316 µM, first compound 1 µM
[5] = second compound 0.0316 µM, first compound 3.16 µM
[6] = second compound 0.0316 µM, first compound 10 µM
[7] = second compound 0.1 µM, first compound 0.0316 µM
[8] = second compound 0.1 µM, first compound 0.1 µM
[9] = second compound 0.1 µM, first compound 0.316 µM
[10] = second compound 0.1 µM, first compound 1 µM
[11] = second compound 0.1 µM, first compound 3.16 µM
[12] = second compound 0.1 µM, first compound 10 µM
[13] = second compound 0.316 µM, first compound 0.0316 µM
[14] = second compound 0.316 µM, first compound 0.1 µM
[15] = second compound 0.316 µM, first compound 0.316 µM
[16] = second compound 0.316 µM, first compound 1 µM
[17] = second compound 0.316 µM, first compound 3.16 µM
[18] = second compound 0.316 µM, first compound 10 µM
[19] = second compound 1 µM, first compound 0.0316 µM
[20] = second compound 1 µM, first compound 0.1 µM
[21] = second compound 1 µM, first compound 0.316 µM
[22] = second compound 1 µM, first compound 1 µM
[23] = second compound 1 µM, first compound 3.16 µM
[24] = second compound 1 µM, first compound 10 µM
[25] = second compound 3.16 µM, first compound 0.0316 µM
[26] = second compound 3.16 µM, first compound 0.1 µM
[27] = second compound 3.16 µM, first compound 0.316 µM
[28] = second compound 3.16 µM, first compound 1 µM
[29] = second compound 3.16 µM, first compound 3.16 µM
[30] = second compound 3.16 µM, first compound 10 µM
[31] = second compound 10 µM, first compound 0.0316 µM
[32] = second compound 10 µM, first compound 0.1 µM
[33] = second compound 10 µM, first compound 0.316 µM
[34] = second compound 10 µM, first compound 1 µM
[35] = second compound 10 µM, first compound 3.16 µM
[36] = second compound 10 µM, first compound 10 µM
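Note: spheroids exposed to compounds for seven days.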
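Throughout, for viability, T/C: 100% = DMSO vehicle control viability.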

O=C(c1cc(Cc2n[nH]c(=O)c3ccccc23)ccc1F)N1CCN(C(=O)C2CC2)CC1 + COC1C(OC(N)=O)C(O)C(Oc2ccc3c(O)c(NC(=O)c4ccc(O)c(CC=C(C)C)c4)c(=O)oc3c2C)OC1(C)C
IC50 (second compound 0.0316 µM): > 10 µM
IC50 (second compound 0.1 µM): > 10 µM
IC50 (second compound 0.316 µM): > 10 µM
IC50 (second compound 1 µM): > 10 µM
IC50 (second compound 3.16 µM): > 10 µM
IC50 (second compound 10 µM): > 10 µM
viability, T/C [1]: 128%
viability, T/C [2]: 97.7%
viability, T/C [3]: 105%
viability, T/C [4]: 106%
viability, T/C [5]: 79.1%
viability, T/C [6]: 103%
viability, T/C [7]: 109%
viability, T/C [8]: 120%
viability, T/C [9]: 90.5%
viability, T/C [10]: 87.8%
viability, T/C [11]: 105%
viability, T/C [12]: 101%
viability, T/C [13]: 107%
viability, T/C [14]: 90.1%
viability, T/C [15]: 99.1%
viability, T/C [16]: 97.7%
viability, T/C [17]: 117%
viability, T/C [18]: 98%
viability, T/C [19]: 116%
viability, T/C [20]: 94.7%
viability, T/C [21]: 103%
viability, T/C [22]: 119%
viability, T/C [23]: 106%
viability, T/C [24]: 96%
viability, T/C [25]: 98.8%
viability, T/C [26]: 108%
viability, T/C [27]: 113%
viability, T/C [28]: 103%
viability, T/C [29]: 107%
viability, T/C [30]: 98.8%
viability, T/C [31]: 94%
viability, T/C [32]: 99.4%
viability, T/C [33]: 102%
viability, T/C [34]: 110%
viability, T/C [35]: 96%
viability, T/C [36]: 80.8%

C=CC(=O)N1CCN(c2nc(=O)n(-c3c(C)ccnc3C(C)C)c3nc(-c4c(O)cccc4F)c(F)cc23)C(C)C1 (stereo unspecified) + COC1C(OC(N)=O)C(O)C(Oc2ccc3c(O)c(NC(=O)c4ccc(O)c(CC=C(C)C)c4)c(=O)oc3c2C)OC1(C)C
IC50 (second compound 0.0316 µM): > 10 µM
IC50 (second compound 0.1 µM): > 10 µM
IC50 (second compound 0.316 µM): > 10 µM
IC50 (second compound 1 µM): > 10 µM
IC50 (second compound 3.16 µM): > 10 µM
IC50 (second compound 10 µM): > 10 µM
viability, T/C [1]: 114%
viability, T/C [2]: 103%
viability, T/C [3]: 102%
viability, T/C [4]: 94.9%
viability, T/C [5]: 111%
viability, T/C [6]: 94.4%
viability, T/C [7]: 107%
viability, T/C [8]: 116%
viability, T/C [9]: 96.5%
viability, T/C [10]: 115%
viability, T/C [11]: 108%
viability, T/C [12]: 102%
viability, T/C [13]: 105%
viability, T/C [14]: 124%
viability, T/C [15]: 113%
viability, T/C [16]: 100%
viability, T/C [17]: 113%
viability, T/C [18]: 77%
viability, T/C [19]: 94.9%
viability, T/C [20]: 114%
viability, T/C [21]: 114%
viability, T/C [22]: 98.1%
viability, T/C [23]: 89.6%
viability, T/C [24]: 85.4%
viability, T/C [25]: 115%
viability, T/C [26]: 113%
viability, T/C [27]: 102%
viability, T/C [28]: 90.1%
viability, T/C [29]: 95.2%
viability, T/C [30]: 90.5%
viability, T/C [31]: 106%
viability, T/C [32]: 109%
viability, T/C [33]: 105%
viability, T/C [34]: 114%
viability, T/C [35]: 112%
viability, T/C [36]: 111%

CCCS(=O)(=O)Nc1ccc(F)c(C(=O)c2c[nH]c3ncc(-c4ccc(Cl)cc4)cc23)c1F + Cc1cccc(N(C)C(=O)C2C(O)CCN2c2nc(C)cc(C(F)(F)F)c2C#N)c1
IC50 (second compound 0.0316 µM): > 10 µM
IC50 (second compound 0.1 µM): > 10 µM
IC50 (second compound 0.316 µM): > 10 µM
IC50 (second compound 1 µM): > 10 µM
IC50 (second compound 3.16 µM): > 10 µM
IC50 (second compound 10 µM): > 10 µM
viability, T/C [1]: 95.1%
viability, T/C [2]: 77.8%
viability, T/C [3]: 73.6%
viability, T/C [4]: 67.4%
viability, T/C [5]: 76.2%
viability, T/C [6]: 64.3%
viability, T/C [7]: 91.8%
viability, T/C [8]: 88.4%
viability, T/C [9]: 66.3%
viability, T/C [10]: 73.2%
viability, T/C [11]: 75.7%
viability, T/C [12]: 69.7%
viability, T/C [13]: 92.5%
viability, T/C [14]: 85.6%
viability, T/C [15]: 73%
viability, T/C [16]: 77.5%
viability, T/C [17]: 70%
viability, T/C [18]: 61.8%
viability, T/C [19]: 86.9%
viability, T/C [20]: 91.9%
viability, T/C [21]: 90.5%
viability, T/C [22]: 70.3%
viability, T/C [23]: 68%
viability, T/C [24]: 61.4%
viability, T/C [25]: 92.1%
viability, T/C [26]: 92.9%
viability, T/C [27]: 72.1%
viability, T/C [28]: 64.3%
viability, T/C [29]: 61.5%
viability, T/C [30]: 65%
viability, T/C [31]: 81.6%
viability, T/C [32]: 81.2%
viability, T/C [33]: 77.1%
viability, T/C [34]: 62.8%
viability, T/C [35]: 73.5%
viability, T/C [36]: 58.4%

— PubChem BioAssay AID1963852 (Molecular Pharmacology Branch, DTP, NCI, 2024)
